Laboratory results from paper PMC12508063, “Chloroindazole based estrogen receptor β ligands with favorable pharmacokinetics promote functional remyelination and visual recovery” (Scientific Reports, 2025).
Several values for one entry are separate records, joined by “and”; a condition that tells them apart may be missing. Identical values can stand only once. Like-named read-outs stand apart in the source and are kept apart here.

Assays:
[1] = tested on: EAE mice; assay: Visual evoked potential (VEP) in EAE; format: in vivo, mouse; conditions: vs vehicle-treated
Method: (§1) Optical coherence tomography, electroretinograms and visual evoked potentials: OCT was acquired using the spectral domain‐OCT (R2200 840 nm HHP; Leica, Deerfield, IL) at peak EAE disease according to previously published methods[23],[28]. Each image was taken 3 times and averaged. Automatic segmentation of retinal layers was performed using Bioptigen Diver 3.0 software (Leica Microsystems, Deerfield, IL). ERG and VEPs were measured using the HMsERG200 ([…], Henderson, NV) as previously described[23],[28]. Animals were dark adapted for a minimum of 5 h prior to recording. During acquisition, animals were anesthetized with continuous 2% isoflurane. Traces were averaged and filtered for 60 Hz noise and a low-pass filter. MATLAB was used to adjust baselines and smoothed prior to measuring ERG and VEP amplitudes and latencies.
(§2) Electroretinograms and visual evoked potentials were measured using the HMsERG200 (OcuScience, Henderson, NV) as previously described (8, 9). Animals were dark adapted for a minimum of 5 hours prior to recording. During acquisition, animals were anesthetized with continuous 2% isoflurane. Traces were averaged and filtered for 60 Hz noise and a low-pass filter. MATLAB was used to adjust baselines and smoothed prior to measuring ERG and VEP amplitudes and latencies.

[2] = tested on: EAE mice; assay: Electroretinogram (ERG) in EAE; format: in vivo, mouse; conditions: for ERG A-wave and B-wave amplitude: vs vehicle-treated mice
Method: as §1, §2

[3] = Stability in human plasma; format: in vitro ADME
[4] = tested on: splenocytes from EAE mice; assay: Splenocyte cytokine/chemokine analysis ex vivo (MOG35-55 stimulation); format: in vivo, mouse; conditions: K102 5 or 30 mg/kg, K110 10 or 30 mg/kg; 40 dpi
Method: Splenocyte Isolation and Cytokine Analysis: Spleens were collected from mice prior to transcardial perfusion, and splenocytes were isolated, counted, and resuspended in RPMI medium. After 1 h incubation, cells were stimulated with 25 µg/mL MOG₃₅-₅₅, and supernatants were collected 48 h later. Cytokine and chemokine levels in the supernatants, including pro- and anti-inflammatory markers as well as chemokines were analyzed by The Cytokine Core (Indianapolis, IN).
In MS and EAE, peripherally activated immune cells release inflammatory cytokines and chemokines, triggering demyelination and axonal damage. To examine how different concentrations of K102 (5 mg/kg or 30 mg/kg) (Fig. 4A) and K110 (10 mg/kg or 30 mg/kg) (Fig. 4B) influence the peripheral immune response, splenocytes were isolated from EAE mice at 40 dpi. These splenocytes were then stimulated ex vivo with MOG35-55 and analyzed for cytokine and chemokine expression.
Splenocyte Isolation and Cytokine Analysis: Spleens were removed from mice prior to transcardial perfusion. After isolation, splenocytes were counted and resuspended in RPMI. Following incubation, splenocytes were stimulated with 25 µg/ml MOG35–55 and supernatants were collected 48 hours later. Levels of the following cytokines and chemokines present in culture supernatants were sent to The Cytokine Core (Indianapolis, IN); pro-inflammatory cytokines: IFNγ, Tumor necrosis factor (TNF)α, IL-1α, IL-1β, IL-3, IL-6, IL9, IL17, Vascular endothelial growth factor (VEGF), CCL5/RANTES and macrophage colony-stimulating factor (M-CSF); anti-inflammatory cytokines: IL-5 and IL-10; chemokines: CXCL10, and CXCL1 were determined.

[5] = molecular target: T1, CYP3A4 (Homo sapiens, UniProt P08684); assay: CYP inhibition (midazolam and testosterone substrates); conditions: test compounds at 10 μM; for CYP Inhibition Percentage CYP3A4-M: substrate Midazolam
T1 sequence (P08684 whole entry): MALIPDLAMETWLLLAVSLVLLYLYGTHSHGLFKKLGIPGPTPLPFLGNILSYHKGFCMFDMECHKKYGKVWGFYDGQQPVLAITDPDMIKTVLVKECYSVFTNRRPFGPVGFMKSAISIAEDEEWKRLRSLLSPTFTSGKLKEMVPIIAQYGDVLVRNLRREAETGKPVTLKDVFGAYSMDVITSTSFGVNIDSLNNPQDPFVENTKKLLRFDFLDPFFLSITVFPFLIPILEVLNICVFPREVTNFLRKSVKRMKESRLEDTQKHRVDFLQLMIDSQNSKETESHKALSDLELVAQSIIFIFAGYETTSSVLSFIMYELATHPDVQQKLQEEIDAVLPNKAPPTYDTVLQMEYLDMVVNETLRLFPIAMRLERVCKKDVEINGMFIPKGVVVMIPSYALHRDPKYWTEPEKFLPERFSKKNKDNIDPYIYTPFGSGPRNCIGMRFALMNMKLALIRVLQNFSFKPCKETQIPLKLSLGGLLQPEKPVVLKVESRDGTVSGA

[6] = molecular target: T2, full length purified human ERβ (Homo sapiens, UniProt Q92731); assay: competitive ligand binding assay, tritiated estradiol as tracer; conditions: for RBA β/α ratio: ERβ/ERα relative affinity ratio
T2 construct: full length purified human ERα and ERβ
T2 sequence (Q92731 whole entry): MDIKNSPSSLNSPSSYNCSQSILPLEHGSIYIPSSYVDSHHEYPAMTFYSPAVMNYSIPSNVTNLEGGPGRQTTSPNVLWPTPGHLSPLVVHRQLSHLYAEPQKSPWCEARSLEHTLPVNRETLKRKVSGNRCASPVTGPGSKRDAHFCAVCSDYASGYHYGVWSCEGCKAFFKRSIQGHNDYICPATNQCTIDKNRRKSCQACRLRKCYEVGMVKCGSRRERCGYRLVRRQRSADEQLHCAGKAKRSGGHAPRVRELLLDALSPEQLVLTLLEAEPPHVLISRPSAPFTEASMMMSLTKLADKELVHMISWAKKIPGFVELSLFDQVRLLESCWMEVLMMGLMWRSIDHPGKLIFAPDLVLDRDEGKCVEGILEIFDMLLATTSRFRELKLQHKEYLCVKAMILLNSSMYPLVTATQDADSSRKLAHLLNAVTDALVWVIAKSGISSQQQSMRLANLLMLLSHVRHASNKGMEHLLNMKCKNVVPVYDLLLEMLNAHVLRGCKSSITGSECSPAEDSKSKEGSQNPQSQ

[7] = tested on: EAE mice; assay: Rotarod motor performance in EAE; format: in vivo, mouse; conditions: 5 mg/kg SC
Method: EAE induction and treatment: EAE was induced in 8–10-week-old wild-type C57BL/6J mice using MOG₃₅-₅₅ peptide[11],[14],[23]–[25]. Mice were scored daily using a standard clinical scale (0–5) and tested for their ability to stay on a rotarod. […] At peak disease (18–22 days post-immunization), animals were grouped into EAE+Vehicle, EAE+K102, and EAE+K110.
Rotarod Motor Performance: Mice cages were moved to the behavioral room 1 hour prior to testing. Motor performance was assessed using the Rotarod apparatus (Med Associates, Inc., St. Albans, VT) as previously performed with modifications(5, 6). Briefly, mice were placed on the rotating horizontal rod set to a speed of 3 – 30 rpm for a maximum of 300 seconds. The amount of time the mouse was able to walk on the accelerating rod was recorded. Each mouse was tested in three trials separated by 15 minute intertrial intervals. The average of the three trials was reported as a single value for each mouse. Statistical analysis was performed in GraphPad Prism 10 software using Mann-Whitney test.

[8] = Uterine weight and body weight in EAE mice; conditions: for Body weight / Uterine weight / Uterine weight/body weight ratio: EAE mice; for uterine weight relative to body weight: normal or EAE intact female mice
Text: The animals from Hook EAE experiment Figure 3Bii were used. […] (S6ii) The weight of the uteri removed from mice relative to total body weight along with the raw uterine weight and body weight at the end of this experiment is plotted.

[9] = tested on: co-cultures of primary cortical neurons and OPCs; assay: Axon myelination in co-cultures of primary cortical neurons and OPCs; format: cell-based, mouse; conditions: K102, K110 10 nM; Clemastine, Bazedoxifene 500 nM; 5 days
Text: Mouse and Human primary cell cultures: Primary OPC/OL culture were isolated from the cortices of postnatal day 0–1 C57BL/6J mice of both sexes, using established protocols[11],[20],[21]. Mouse OPC and Neuronal Co-cultures: Primary neuronal cultures were established in Neurobasal medium with B27 and plated on poly-L-lysine-coated coverslips. After 12 days, OPCs were isolated, counted, and added to neuronal cultures and media was replaced with neuronal and proliferation media for 3 days, then switched to maturation media that maintained both neurons and OLs. Human iPSC-derived OPCs (Tempo’s iOligo™) were expanded, cryopreserved, and later plated on Matrigel-coated coverslips. After 3 days in growth medium, cells were treated for 3 weeks with T3 containing maturation medium. Differentiation into myelin-producing OLs was assessed using O4 (OL surface marker on pre-OLs) and myelin basic protein (MBP) immunohistochemistry. […]
Immunocytochemistry and Image Analysis of cell cultures: After treatment, cells were fixed and stained for MBP and DAPI. […] Cell densities were quantified using ImageJ and normalized to control conditions. MBP-positive cells, their process extensions, and highly branched OLs were counted to assess differentiation. Co-culture images were analyzed for MBP and β3-tubulin colocalization using JACoP[22] in ImageJ, with results validated by manual quantification. […]

[10] = molecular target: T3, full length purified human ERα (Homo sapiens, UniProt P03372); assay: competitive ligand binding assay, tritiated estradiol as tracer
T3 construct: full length purified human ERα and ERβ
T3 sequence (P03372 whole entry): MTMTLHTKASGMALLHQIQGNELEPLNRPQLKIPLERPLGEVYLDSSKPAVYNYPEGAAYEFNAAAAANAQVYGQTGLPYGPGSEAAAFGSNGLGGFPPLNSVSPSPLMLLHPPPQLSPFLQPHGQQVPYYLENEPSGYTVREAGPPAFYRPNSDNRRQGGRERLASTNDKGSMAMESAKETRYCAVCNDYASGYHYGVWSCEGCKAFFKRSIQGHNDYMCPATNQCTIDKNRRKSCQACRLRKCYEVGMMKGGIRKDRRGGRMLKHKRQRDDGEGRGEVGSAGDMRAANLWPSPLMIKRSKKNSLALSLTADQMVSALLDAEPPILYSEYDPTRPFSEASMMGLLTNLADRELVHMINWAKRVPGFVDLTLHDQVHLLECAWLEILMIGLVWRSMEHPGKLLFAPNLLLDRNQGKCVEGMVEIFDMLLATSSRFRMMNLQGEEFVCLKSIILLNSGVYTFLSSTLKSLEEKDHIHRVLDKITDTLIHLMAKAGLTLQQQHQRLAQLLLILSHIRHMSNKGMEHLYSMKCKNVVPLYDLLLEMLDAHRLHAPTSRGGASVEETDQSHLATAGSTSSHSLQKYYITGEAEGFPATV

[11] = for Kp uu Brain Mean / Kp uu Uterus Mean: 40 mg/kg PO; for K p,uu,brain Cmax: single dose oral PK in mouse at 40 mg/kg
Method: Plasma samples were 100% plasma or 5-fold diluted plasma; brain homogenate samples were diluted 5-fold with buffer, while uterus homogenate samples were initially diluted 5-fold and then further diluted to 20-fold. Equilibrium dialysis was performed in a 96-well plate system with wells containing 80 µL of buffer and 80 µL of the sample on opposite sides of the membrane. After incubation at 37°C for 5 hours with shaking at 180 rpm, aliquots were collected from both sides of the membrane for further analysis.
For plasma samples, 50 µL of sample was mixed with 50 µL of phosphate buffer, followed by addition of 300 µL quenching solution containing internal standards and DMSO. For 5-fold diluted plasma samples, 35 µL of sample was mixed with 35 µL of blank buffer, followed by 280 µL quenching solution. For tissue homogenate samples, 50 µL samples were mixed with 50 µL of phosphate buffer, followed by 200 µL quenching solution. All samples were vortexed for 1 minute, and centrifuged at 4,000 rpm for 15 minutes, and the supernatant collected for LC-MS/MS analysis, which was performed using an API 5500 mass spectrometer with an ACQUITY UPLC BEH 1.7 μm C18 100 Å column (2.1 mm * 50 mm) and ACE Excel 5 C4 (2.1 * 50 mm) column. Mobile phases were 0.1% formic acid in water or 5 mM NH4OAc with 0.05% formic acid in water (A) and 0.1% formic acid in acetonitrile (B). Run times were 8 minutes for plasma samples and 5 minutes for other sample types. The mass spectrometer was operated in positive electrospray ionization mode.
Free fraction (fu) and recovery were calculated using specific equations for each sample type. For plasma samples, fu (%) was calculated as (Cbuffer / Cplasma) * 100%, and recovery (%) as ((Cplasma + Cbuffer) / T0) * 100%. For 5-fold diluted plasma samples, fu,20% (%) was calculated as (Cbuffer / Cplasma) * 100%, and fu,100% (%) as fu,20% / (5 - 4 * fu,20%) * 100%. Similar equations were used for uterus and brain samples, accounting for their respective dilution factors. These calculations allowed for the determination of the free fraction of the test compound in various tissue compartments and the assessment of recovery rates.

[12] = tested on: primary mouse OPCs; assay: OL differentiation in primary mouse OPC culture (MBP, DAPI); format: cell-based; conditions: for MBP+ OLs vs vehicle-treated wells: 10 nM; for number of MBP+ cells vs vehicle: 10 nM and 100 nM, concentration-dependent
Text: Mouse and Human primary cell cultures: Primary OPC/OL culture were isolated from the cortices of postnatal day 0–1 C57BL/6J mice of both sexes, using established protocols[11],[20],[21]. Mouse OPC and Neuronal Co-cultures: Primary neuronal cultures were established in Neurobasal medium with B27 and plated on poly-L-lysine-coated coverslips. After 12 days, OPCs were isolated, counted, and added to neuronal cultures and media was replaced with neuronal and proliferation media for 3 days, then switched to maturation media that maintained both neurons and OLs. Human iPSC-derived OPCs (Tempo’s iOligo™) were expanded, cryopreserved, and later plated on Matrigel-coated coverslips. After 3 days in growth medium, cells were treated for 3 weeks with T3 containing maturation medium. Differentiation into myelin-producing OLs was assessed using O4 (OL surface marker on pre-OLs) and myelin basic protein (MBP) immunohistochemistry. In all conditions compounds or vehicle were added to culture during differentiation for either 5 days (mouse) or 18 days (human).
Immunocytochemistry and Image Analysis of cell cultures: After treatment, cells were fixed and stained for MBP and DAPI. Coverslips were imaged using a confocal microscope at 10× and 40× objectives. Cell densities were quantified using ImageJ and normalized to control conditions. MBP-positive cells, their process extensions, and highly branched OLs were counted to assess differentiation. Co-culture images were analyzed for MBP and β3-tubulin colocalization using JACoP[22] in ImageJ, with results validated by manual quantification.
Primary OL Progenitor cells (OPC) and Neuronal Cultures: OPC and cortical neuronal cultures were prepared from the cortices of postnatal day P0-P1 C57BL/6J mice of both sexes, following established protocols (1, 2);(3). The single-cell suspension was divided into two tubes. One tube was treated with warm Neuronal Basal media, counted, and plated onto poly-L-lysine (PLL)-coated glass coverslips. The second tube was resuspended in glial growth medium, composed of DMEM-F12 supplemented with 10% fetal bovine serum, and placed in a PLL-coated culture flask for 8–10 days until confluent. Primary OPCs were then isolated by shaking and either co-cultured with primary neurons or plated onto poly-D-lysine-coated glass coverslips (three coverslips per condition, 2x10^6 cells per coverslip). The OPCs were allowed to attach for three days, followed by five days in differentiating media (DMEM-F12 with Sato media containing triiodothyronine and thyroxine) supplemented with various analogues and remyelinating compounds. For comparison, a negative control (vehicle, consisting of the media and ethanol mixture used to dissolve the analogues and remyelinating compounds) and a normal control (differentiating media alone) were included in the experiments.
Quantification of Mature OLs and Co-culture axon myelination: At the conclusion of the treatment period, cells were fixed and subjected to immunocytochemistry to evaluate myelin basic protein (MBP) expression, co-stained with the nuclear marker DAPI (shown in blue). […] Cell counting was performed using the ImageJ multipoint tool, and cell densities were calculated by dividing the counts by the image area (mm²). […]
To assess OL differentiation, the number of MBP-positive (MBP+) cells and process extensions exceeding the diameter of the cell body were quantified.

[13] = tested on: CPZ demyelinating model of MS; assay: Cuprizone (CPZ) diet demyelination/remyelination model, corpus callosum IHC; conditions: for CC1 + OLs compared to RM + V / CD45 immunoreactivity compared to 12wkDM / GFAP expression / myelin (MBP, PLP, and MOG staining) compared to RM + V: corpus callosum, 5 mg/kg/day, 3 wk
Text: CPZ administration and treatment: Mice were fed a diet containing 0.2% bis(cyclohexanone)oxaldihydrazone (CPZ, Teklad Custom Diets, Madison, WI) for 12 weeks, as previously described[15],[27]. A subset of mice was perfused immediately following the 12-week CPZ regimen (12wkDM). […] These mice were perfused and their brains were processed for IHC.

[14] = molecular target: T1, CYP3A4; conditions: 10 µM
[15] = relative binding affinity, estradiol = 100

## Cc1cc(O)ccc1-n1nc2ccc(O)cc2c1Cl [Compound K102, IndCl-o-Me]
[1]
  VEP P1 (or N2) amplitude: significant increase
  VEP P1 latency: reduction
[2]
  ERG B-wave latency: improved
  ERG A-wave and B-wave amplitude: significant increase
[3]
  % Remaining at 6 hr in Human Plasma: 89.39%
[4]
  CXCL1 production: did not affect
  CXCL10 levels compared to vehicle: reduced
  certain anti-inflammatory cytokines compared to vehicle: significantly lower
  pro-inflammatory cytokine levels compared to vehicle: reduced
[5]
  CYP Inhibition Percentage CYP3A4-M: 50.95%
[5]; substrate Testosterone, 10 µM
  CYP Inhibition Percentage CYP3A4-T: 77% and 76.99%
[6]
  RBA ERβ: 24.0
  RBA β/α ratio: 65
[7]
  ability to remain on the rotarod: non-significant improvement
[8]; group average
  Body weight: 20.124
  Uterine weight: 0.055
  Uterine weight/body weight ratio: 0.275
[8]; individual animals
  Body weight: 19.160 and 19.460 and 20.910 and 21.110 and 19.980
  Uterine weight: 0.0650 and 0.0330 and 0.0810 and 0.0490
  Uterine weight/body weight ratio: 0.3392 and 0.1696 and 0.3874 and 0.2321 and 0.2452
[8]
  uterine weight relative to body weight: no increase
[9]
  OL processes wrapping axons: significant increase
[10]
  RBA ERα: 0.37
[11]; 0.5 hr
  Kp uu Brain Mean: 0.581
  Kp uu Uterus Mean: 0.269
[11]; 2.0 hr
  Kp uu Brain Mean: 0.333
  Kp uu Uterus Mean: 0.380
[11]; 4.0 hr
  Kp uu Brain Mean: 0.629
  Kp uu Uterus Mean: 8.681
[11]; 8.0 hr
  Kp uu Brain Mean: 0.325
  Kp uu Uterus Mean: 3.086
[11]
  K p,uu,brain Cmax: 0.63
[12]
  MBP+ OLs vs vehicle-treated wells: significant increase
  number of MBP+ cells vs vehicle: significantly increased
[13]; PO
  RM/N (remyelination with cpd. vs. normal): 76%
  RM/RM-V (remyelination with cpd. vs. spontaneous remyelination without cpd): 121%
[13]; SC, 5 mg/kg
  RM/N (remyelination with cpd. vs. normal): 94%
  RM/RM-V (remyelination with cpd. vs. spontaneous remyelination without cpd): 149%
[13]
  CC1 + OLs compared to RM + V: further increase
  CD45 immunoreactivity compared to 12wkDM: small but significant decrease
  GFAP expression: remained unchanged
  myelin (MBP, PLP, and MOG staining) compared to RM + V: significant increase

## Oc1ccc(-n2nc3ccc(O)cc3c2Cl)c(O)c1 [Compound K110, IndCl-o-OH]
[1]
  VEP P1 (or N2) amplitude: did not affect
  VEP P1 latency: did reduce
[2]
  ERG B-wave latency: improved
  ERG A-wave and B-wave amplitude: significant increase
[3]
  % Remaining at 6 hr in Human Plasma: 105.99%
[4]
  CXCL1 production: did not affect
  CXCL10 levels compared to vehicle: reduced
  certain anti-inflammatory cytokines compared to vehicle: significantly lower
  pro-inflammatory cytokine levels compared to vehicle: reduced
[5]
  CYP Inhibition Percentage CYP3A4-M: 13.95%
[6]
  RBA β/α ratio: 48
[6]; [15]
  RBA ERβ: 4.35
[7]
  ability to remain on the rotarod: non-significant improvement
[14]
  CYP Inhibition Percentage CYP3A4-T: 45.13%
[8]; group average
  Body weight: 15.27
  Uterine weight: 0.04
  Uterine weight/body weight ratio: 0.26
[8]; individual animals
  Body weight: 14.58 and 15.48 and 15.50 and 14.68 and 16.10
  Uterine weight: 0.044 and 0.027 and 0.034 and 0.056
  Uterine weight/body weight ratio: 0.3018 and 0.1744 and 0.2194 and 0.3815 and 0.2112
[8]
  uterine weight relative to body weight: no increase
[9]
  OL processes wrapping axons: significant increase
[10]; [15]
  RBA ERα: 0.09
[11]; 0.5 hr
  Kp uu Brain Mean: 0.232
  Kp uu Uterus Mean: 0.516
[11]; 2.0 hr
  Kp uu Brain Mean: 0.802
  Kp uu Uterus Mean: 10.651
[11]; 4.0 hr
  Kp uu Brain Mean: 0.280
  Kp uu Uterus Mean: 45.849
[11]; 8.0 hr
  Kp uu Brain Mean: 0.294
  Kp uu Uterus Mean: 6.280
[11]; 40 mg/kg
  K p,uu,brain Cmax: 0.8
[12]
  MBP+ OLs vs vehicle-treated wells: significant increase
  number of MBP+ cells vs vehicle: significantly increased
[13]; PO
  RM/N (remyelination with cpd. vs. normal): 100%
  RM/RM-V (remyelination with cpd. vs. spontaneous remyelination without cpd): 127%
[13]; SC, 5 mg/kg
  RM/N (remyelination with cpd. vs. normal): 84%
  RM/RM-V (remyelination with cpd. vs. spontaneous remyelination without cpd): 133%
[13]
  CC1 + OLs compared to RM + V: further increase
  CD45 immunoreactivity compared to 12wkDM: small but significant decrease
  GFAP expression: remained unchanged
  myelin (MBP, PLP, and MOG staining) compared to RM + V: significant increase
